System: AAV-αSyn-induced male mice
Assay: Olfactory discrimination test, AAV-αSyn-induced PD model mice
Format: in vivo, mouse
From the text: Adeno-associated viruses (AAVs) expressing GFP only or αSyn (wild-type or A53T) were kindly provided by Dr. Yoon Seong Kim from the University of Central Florida. Recombinant AAV vectors were produced using modified pAAV-IRES-hrGFP (Agilent) to express wild-type and mutant human αSyn under control of the CMV promoter. Viral particles (AAV2) were produced at the University of Iowa Viral Vector Core according to standard operating procedures (https://medicine.uiowa.edu/vectorcore/). […] AAV vectors were delivered into the substantia nigra unilaterally by stereotaxic surgery.
The olfactory discrimination test was designed based on Prediger et al.. Briefly, mice were placed in a chamber (40 (w) × 20 (d) × 20 (h) cm) segmented with two identical compartments containing fresh sawdust (non-familiar odor) on one side and unchanged sawdust (familiar odor; maintained for 3 days before the test) on the other side. Mice could choose between one or another area by freely passing through an open door, for 5 min. Mice movements were monitored with EthoVision XT version 7.0 (Noldus) and time (s) and distance (cm) traveled in each compartment were recorded and analyzed.

CCN1CCN(c2cc(N3CCN(CC)CC3)nc(NCCNc3ccnc4cc(Cl)ccc34)n2)CC1 [4A7C-301, N^1-(4,6-bis(4-ethylpiperazin-1-yl)pyrimidin-2-yl)-N^2-(7-chloroquinolin-4-yl)ethane-1,2-diamine]
olfactory dysfunction (in words) (αSynA53T-mice): significantly reversed | olfactory dysfunction (in words) (αSynWT-mice, 6 and 8 weeks after surgery): rescued olfactory dysfunction

Source: paper PMC10354055, “An optimized Nurr1 agonist provides disease-modifying effects in Parkinson’s disease models” (Nature Communications, 2023)
